# How the values were obtained:
# [1] = exposure to conditions mimicking the pH of the gut (beta hydroxy dehydration at low pH); type: physicochemical; details: for dehydration of exposed beta hydroxy groups relative to the salts or free acid of β-hydroxybutyrate: low pH conditions
# Excerpt: The present invention generally relates to means of protecting or stabilizing the beta hydroxy group in β-hydroxybutyrate in order to prevent beta hydroxy dehydration in the presence of strong acid, such as found in the stomach. That reaction is a type of gastric degradation which yield compounds with no known metabolic therapy. […] Stabilizing the beta hydroxy group is possible by replacing the carboxylic acid functional group with an ester functional group, which prevents resonance between the two oxygen atoms by hydrogen and considerably stabilizes the beta hydroxy group reducing dehydration by as much as 40% compared to salts and the free acid of β-hydroxybutyrate. Protecting the beta hydroxy group is defined by replacing the beta hydroxy group with a second molecule of β-hydroxybutyrate forming an ester bond at the previous beta hydroxy functional group and yielding a dimer ester (DE) of β-hydroxybutyrate. Further described herein are similar therapeutic agents, compositions, and production processes thereof. […] The Dimer Esters protecting the beta hydroxy group are far less susceptible than any other identified compound to dehydration because only one beta hydroxy group is exposed of the two effective molecules of β-hydroxybutyrate This is disclosed in the prior art providing room for more advantageous compounds and formulations thereof as described herein. A third experiment was carried out exposing the salts and KME to conditions mimicking the pH of the gut.
# [2] = healthy resting adults; cited from earlier work
dehydration of exposed beta hydroxy groups relative to the salts or free acid of β-hydroxybutyrate [1],"dehydration on exposure to conditions mimicking the pH of the gut ([1]; third experiment, yields undesirable products)",Structure (SMILES),increase of myocardial output [2]
dehydrate to a far lesser extent,Rapid dehydration was observed,"C[C@@H](O)CCOC(=O)C[C@@H](C)O [KME, (3R)-hydroxybutyl (3R)-hydroxybutyrate]",
dehydrate to a far lesser extent,,CC(CCO)OC(=O)C[C@@H](C)O (stereo partly shown) [SKE],
,,CC(O)CC(=O)O (stereo not drawn) [beta hydroxybutyrate],50%
